Measured values reported in PubChem BioAssay (NCI).
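48-hour exposure; five concentrations; linearly interpolated endpoints. Here, GI50 denotes the concentration required for 50% inhibition of growth. TGI is the concentration that stops growth completely.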

Columns and labels:
Assay in all cases: NCI tumour cell line growth inhibition, 48 h
DU-145 prostate = test system: DU-145 prostate
SK-OV-3 ovarian = test system: SK-OV-3 ovarian
MDA-MB-231 breast = test system: MDA-MB-231 breast
HOP-92 NSCLC = test system: HOP-92 NSCLC
T-47D breast = test system: T-47D breast
NCI-H522 lung = test system: NCI-H522 lung
UACC-62 melanoma = test system: UACC-62 melanoma
SNB-19 CNS = test system: SNB-19 CNS
NCI-H226 lung = test system: NCI-H226 lung
RPMI-8226 leukemia = test system: RPMI-8226 leukemia
SR leukemia = test system: SR leukemia
MOLT-4 leukemia = test system: MOLT-4 leukemia
ACHN renal = test system: ACHN renal
SNB-75 CNS = test system: SNB-75 CNS
SK-MEL-5 melanoma = test system: SK-MEL-5 melanoma
HL-60(TB) leukemia = test system: HL-60(TB) leukemia
HCC-2998 colon = test system: HCC-2998 colon
A498 renal = test system: A498 renal
CAKI-1 renal = test system: CAKI-1 renal
LOX IMVI melanoma = test system: LOX IMVI melanoma
COLO 205 colon = test system: COLO 205 colon
SW-620 colon = test system: SW-620 colon
TK-10 renal = test system: TK-10 renal
K-562 leukemia = test system: K-562 leukemia
EKVX NSCLC = test system: EKVX NSCLC
KM12 colon = test system: KM12 colon
UO-31 renal = test system: UO-31 renal
U251 CNS = test system: U251 CNS
SN12C renal = test system: SN12C renal
OVCAR-4 ovarian = test system: OVCAR-4 ovarian
BT-549 breast = test system: BT-549 breast
MCF7 breast = test system: MCF7 breast
SK-MEL-2 melanoma = test system: SK-MEL-2 melanoma
NCI-H23 lung = test system: NCI-H23 lung
SF-268 CNS = test system: SF-268 CNS
SF-295 CNS = test system: SF-295 CNS
HS 578T breast = test system: HS 578T breast
OVCAR-8 ovarian = test system: OVCAR-8 ovarian
HCT-116 colon = test system: HCT-116 colon
SF-539 CNS = test system: SF-539 CNS
SK-MEL-28 melanoma = test system: SK-MEL-28 melanoma
HCT-15 colon = test system: HCT-15 colon
UACC-257 melanoma = test system: UACC-257 melanoma
PC-3 prostate = test system: PC-3 prostate
HT29 colon = test system: HT29 colon
A549 NSCLC = test system: A549 NSCLC
MDA-MB-435 = test system: MDA-MB-435
786-0 renal = test system: 786-0 renal
NCI-H460 lung = test system: NCI-H460 lung
OVCAR-5 ovarian = test system: OVCAR-5 ovarian
HOP-62 NSCLC = test system: HOP-62 NSCLC
RXF 393 renal = test system: RXF 393 renal
M14 melanoma = test system: M14 melanoma
NCI/ADR-RES ovarian = test system: NCI/ADR-RES ovarian
CCRF-CEM leukemia = test system: CCRF-CEM leukemia
IGROV1 ovarian = test system: IGROV1 ovarian
OVCAR-3 ovarian = test system: OVCAR-3 ovarian
MALME-3M melanoma = test system: MALME-3M melanoma

CC1=NN(c2nc(N)nc(COCc3nc(N)nc(N4N=C(C)CC4(C)C)n3)n2)C(C)(C)C1
TGI (DU-145 prostate): > 100 µM
TGI (SK-OV-3 ovarian): > 100 µM
TGI (MDA-MB-231 breast): > 100 µM
TGI (HOP-92 NSCLC): > 100 µM
TGI (T-47D breast): > 100 µM
TGI (NCI-H522 lung): > 100 µM
TGI (UACC-62 melanoma): > 100 µM
TGI (SNB-19 CNS): > 100 µM
TGI (NCI-H226 lung): > 100 µM
TGI (RPMI-8226 leukemia): > 100 µM
TGI (SR leukemia): > 100 µM
TGI (MOLT-4 leukemia): > 100 µM
TGI (ACHN renal): > 100 µM
TGI (SNB-75 CNS): > 100 µM
TGI (SK-MEL-5 melanoma): > 100 µM
TGI (HL-60(TB) leukemia): > 100 µM
TGI (HCC-2998 colon): > 100 µM
TGI (A498 renal): > 100 µM
TGI (CAKI-1 renal): > 100 µM
TGI (LOX IMVI melanoma): > 100 µM
TGI (COLO 205 colon): > 100 µM
TGI (SW-620 colon): > 100 µM
TGI (TK-10 renal): > 100 µM
TGI (K-562 leukemia): > 100 µM
TGI (EKVX NSCLC): > 100 µM
TGI (KM12 colon): > 100 µM
TGI (UO-31 renal): > 100 µM
TGI (U251 CNS): > 100 µM
TGI (SN12C renal): > 100 µM
TGI (OVCAR-4 ovarian): > 100 µM
TGI (BT-549 breast): > 100 µM
TGI (MCF7 breast): > 100 µM
TGI (SK-MEL-2 melanoma): > 100 µM
TGI (NCI-H23 lung): > 100 µM
TGI (SF-268 CNS): > 100 µM
TGI (SF-295 CNS): > 100 µM
TGI (HS 578T breast): > 100 µM
TGI (OVCAR-8 ovarian): > 100 µM
TGI (HCT-116 colon): > 100 µM
TGI (SF-539 CNS): > 100 µM
TGI (SK-MEL-28 melanoma): > 100 µM
TGI (HCT-15 colon): > 100 µM
TGI (UACC-257 melanoma): > 100 µM
TGI (PC-3 prostate): > 100 µM
TGI (HT29 colon): > 100 µM
TGI (A549 NSCLC): > 100 µM
TGI (MDA-MB-435): > 100 µM
TGI (786-0 renal): > 100 µM
TGI (NCI-H460 lung): > 100 µM
TGI (OVCAR-5 ovarian): > 100 µM
TGI (HOP-62 NSCLC): > 100 µM
TGI (RXF 393 renal): > 100 µM
TGI (M14 melanoma): > 100 µM
TGI (NCI/ADR-RES ovarian): > 100 µM
TGI (CCRF-CEM leukemia): > 100 µM
TGI (IGROV1 ovarian): > 100 µM
TGI (OVCAR-3 ovarian): > 100 µM

OCC#Cc1ccccc1C#CCCCCCCC#Cc1ccccc1C#CCO
GI50 (DU-145 prostate): 19.1 µM
TGI (DU-145 prostate): 35.1 µM
GI50 (SK-OV-3 ovarian): 15.8 µM
TGI (SK-OV-3 ovarian): 30.5 µM
GI50 (MDA-MB-231 breast): 9.97 µM
TGI (MDA-MB-231 breast): 24.8 µM
GI50 (HOP-92 NSCLC): 13.1 µM
TGI (HOP-92 NSCLC): 26.5 µM
GI50 (T-47D breast): 18.1 µM
TGI (T-47D breast): 33.7 µM
GI50 (NCI-H522 lung): 0.882 µM
GI50 (UACC-62 melanoma): 16.8 µM
TGI (UACC-62 melanoma): 31.4 µM
GI50 (SNB-19 CNS): 18.6 µM
TGI (SNB-19 CNS): 34.2 µM
GI50 (NCI-H226 lung): 16.4 µM
TGI (NCI-H226 lung): 33.1 µM
GI50 (SR leukemia): 16 µM
TGI (SR leukemia): 34.6 µM
GI50 (MOLT-4 leukemia): 11.1 µM
TGI (MOLT-4 leukemia): 30.8 µM
GI50 (ACHN renal): 17.4 µM
TGI (ACHN renal): 31.5 µM
GI50 (SK-MEL-5 melanoma): 17 µM
TGI (SK-MEL-5 melanoma): 31.3 µM
GI50 (HL-60(TB) leukemia): 25.2 µM
TGI (HL-60(TB) leukemia): 48.5 µM
GI50 (HCC-2998 colon): 17.7 µM
TGI (HCC-2998 colon): 31.5 µM
GI50 (A498 renal): 21.5 µM
TGI (A498 renal): 36.1 µM
GI50 (CAKI-1 renal): 17.4 µM
TGI (CAKI-1 renal): 32.8 µM
GI50 (LOX IMVI melanoma): 18 µM
TGI (LOX IMVI melanoma): 34.7 µM
GI50 (COLO 205 colon): 18.8 µM
TGI (COLO 205 colon): 36.4 µM
GI50 (MALME-3M melanoma): 15.7 µM
TGI (MALME-3M melanoma): 30.1 µM
GI50 (SW-620 colon): 22.2 µM
TGI (SW-620 colon): 41.6 µM
GI50 (TK-10 renal): 19.2 µM
TGI (TK-10 renal): 34.2 µM
GI50 (K-562 leukemia): 15.8 µM
TGI (K-562 leukemia): 40.8 µM
GI50 (EKVX NSCLC): 17.5 µM
TGI (EKVX NSCLC): 32.7 µM
GI50 (KM12 colon): 18.1 µM
TGI (KM12 colon): 37.1 µM
GI50 (UO-31 renal): 24 µM
TGI (UO-31 renal): > 53.1 µM
GI50 (U251 CNS): 18.2 µM
TGI (U251 CNS): 34.1 µM
GI50 (SN12C renal): 15.8 µM
TGI (SN12C renal): 31.1 µM
GI50 (OVCAR-4 ovarian): 18.4 µM
TGI (OVCAR-4 ovarian): 45.6 µM
GI50 (BT-549 breast): 20.2 µM
TGI (BT-549 breast): 37.9 µM
GI50 (MCF7 breast): 18.4 µM
TGI (MCF7 breast): 40.7 µM
GI50 (SK-MEL-2 melanoma): 34.6 µM
TGI (SK-MEL-2 melanoma): > 100 µM
GI50 (NCI-H23 lung): 17.1 µM
TGI (NCI-H23 lung): 30.9 µM
GI50 (SF-268 CNS): 16.2 µM
TGI (SF-268 CNS): 32.5 µM
GI50 (SF-295 CNS): 14.6 µM
TGI (SF-295 CNS): 28.6 µM
GI50 (HS 578T breast): 18.2 µM
TGI (HS 578T breast): 39.1 µM
GI50 (OVCAR-8 ovarian): 17 µM
TGI (OVCAR-8 ovarian): 35.8 µM
GI50 (HCT-116 colon): 10.7 µM
TGI (HCT-116 colon): 24.5 µM
GI50 (SF-539 CNS): 18.7 µM
TGI (SF-539 CNS): 32.8 µM
GI50 (SK-MEL-28 melanoma): 23.6 µM
TGI (SK-MEL-28 melanoma): 62.2 µM
GI50 (HCT-15 colon): 23.2 µM
TGI (HCT-15 colon): 59.6 µM
GI50 (UACC-257 melanoma): 18.9 µM
TGI (UACC-257 melanoma): 34.5 µM
GI50 (PC-3 prostate): 15.9 µM
TGI (PC-3 prostate): 33.3 µM
GI50 (HT29 colon): 22.7 µM
TGI (HT29 colon): > 75.9 µM
GI50 (A549 NSCLC): 17.2 µM
TGI (A549 NSCLC): 33.9 µM
GI50 (MDA-MB-435): 18.1 µM
TGI (MDA-MB-435): 34.1 µM
GI50 (786-0 renal): 17.3 µM
TGI (786-0 renal): 31.1 µM
GI50 (NCI-H460 lung): 20.5 µM
TGI (NCI-H460 lung): 47.4 µM
GI50 (OVCAR-5 ovarian): 17 µM
TGI (OVCAR-5 ovarian): 30.7 µM
GI50 (HOP-62 NSCLC): 9.78 µM
TGI (HOP-62 NSCLC): 25.8 µM
GI50 (RXF 393 renal): 16.8 µM
TGI (RXF 393 renal): 33.6 µM
GI50 (M14 melanoma): 5.64 µM
TGI (M14 melanoma): 22.9 µM
GI50 (NCI/ADR-RES ovarian): 17.7 µM
TGI (NCI/ADR-RES ovarian): 33 µM
GI50 (IGROV1 ovarian): 7.97 µM
TGI (IGROV1 ovarian): 44.3 µM
GI50 (OVCAR-3 ovarian): 18.3 µM
TGI (OVCAR-3 ovarian): 33.4 µM
